SMILES strings stand for the structures.

The target of one test is T1, Tyrosine-protein phosphatase non-receptor type 1 (Rattus norvegicus) (UniProt P20417).
T1 sequence (whole entry): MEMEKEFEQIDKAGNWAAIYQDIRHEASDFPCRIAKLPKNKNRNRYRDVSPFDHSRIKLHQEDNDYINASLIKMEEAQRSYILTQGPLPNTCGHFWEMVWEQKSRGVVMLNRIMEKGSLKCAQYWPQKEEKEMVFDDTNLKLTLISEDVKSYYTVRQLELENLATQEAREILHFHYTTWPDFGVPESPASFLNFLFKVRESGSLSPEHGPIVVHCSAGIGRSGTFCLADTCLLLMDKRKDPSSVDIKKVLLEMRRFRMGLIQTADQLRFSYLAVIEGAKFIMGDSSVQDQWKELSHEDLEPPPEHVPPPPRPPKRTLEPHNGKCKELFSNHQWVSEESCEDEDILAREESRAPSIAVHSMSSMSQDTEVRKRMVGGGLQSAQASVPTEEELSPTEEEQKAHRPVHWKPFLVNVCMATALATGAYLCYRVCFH
Description: Inhibition of PTP1B in Rattus norvegicus (rat) L6 cells assessed as increase in 2-deoxy-D-[U-14C]-glucose uptake at 50 uM after 18 hr relative to control. In kind it is cell-based.
As usually defined, the inhibition is the percentage by which the read-out fell short of the control. On to `O=C(CSc1nc2ccccc2[nH]1)Nc1ccc(C(=O)O)cc1`, for which the inhibition amounted to 22.5%.

For `COc1cccc2[nH]c(SCC(=O)Nc3cc(C(=O)O)ccc3Cl)nc12`, the inhibition came out at 26.6%.

`O=C(CSc1nc2ccccc2[nH]1)Nc1cc(C(=O)O)ccc1Cl`: the inhibition stood at 28.7%.

As to `O=C(CSc1nc2c([N+](=O)[O-])cccc2[nH]1)Nc1cc(C(=O)O)ccc1Cl`, the inhibition was 37.6%.

For `Cc1cccc2[nH]c(SCC(=O)Nc3cc(C(=O)O)ccc3Cl)nc12`, the inhibition is 31.4%.

Consider `O=C(CSc1nc2ccccc2s1)Nc1cc(C(=O)O)ccc1O`, for which the inhibition is 29.2%.

`O=C(CSc1nc2ccccc2s1)Nc1cccc(C(=O)O)c1`: the inhibition is 59.2%.

Take `O=C(CSc1nc2ccccc2s1)Nc1ccc(C(=O)O)cc1`: the inhibition came out at 39.6%.

For the molecule `O=C(CSc1nc2ccccc2[nH]1)Nc1cc(C(=O)O)ccc1O`, the inhibition amounted to 58.6%.

Consider `O=C(CSc1nc2ccccc2s1)Nc1cc(C(=O)O)ccc1Cl`, for which the inhibition came to 28.7%.

In a further test the target is T2, Tyrosine-protein phosphatase non-receptor type 1 (Homo sapiens) (UniProt P18031).
T2 sequence (whole entry): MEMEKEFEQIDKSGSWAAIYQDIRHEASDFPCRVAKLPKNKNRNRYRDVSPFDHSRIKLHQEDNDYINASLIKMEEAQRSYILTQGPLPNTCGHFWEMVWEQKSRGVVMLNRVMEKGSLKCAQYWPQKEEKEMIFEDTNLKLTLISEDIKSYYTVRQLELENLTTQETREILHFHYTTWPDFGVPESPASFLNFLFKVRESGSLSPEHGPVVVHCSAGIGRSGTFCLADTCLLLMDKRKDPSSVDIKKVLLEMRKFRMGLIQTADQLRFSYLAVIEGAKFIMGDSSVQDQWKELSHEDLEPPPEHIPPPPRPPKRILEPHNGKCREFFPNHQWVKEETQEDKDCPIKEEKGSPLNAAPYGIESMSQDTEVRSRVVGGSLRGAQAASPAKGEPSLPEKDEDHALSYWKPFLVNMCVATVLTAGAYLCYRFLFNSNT
The test is described as follows: Inhibition of Homo sapiens (human) recombinant PTP1B assessed as decrease in free phosphate release at 10 uM by malachite staining relative to control.
`O=C(CSc1nc2ccccc2[nH]1)Nc1ccc(C(=O)O)cc1`: the inhibition was 18.7%.

Take `COc1cccc2[nH]c(SCC(=O)Nc3cc(C(=O)O)ccc3Cl)nc12`: the inhibition was 62.7%.

In the case of `O=C(CSc1nc2ccccc2[nH]1)Nc1cc(C(=O)O)ccc1Cl`, the inhibition was 35.8%.

As to `O=C(CSc1nc2c([N+](=O)[O-])cccc2[nH]1)Nc1cc(C(=O)O)ccc1Cl`, the inhibition came out at 36.6%.

Take `Cc1cccc2[nH]c(SCC(=O)Nc3cc(C(=O)O)ccc3Cl)nc12`: the inhibition stood at 20.9%.

Turning to `O=C(CSc1nc2ccccc2s1)Nc1cc(C(=O)O)ccc1O`, the inhibition amounted to 53.9%.

`O=C(CSc1nc2ccccc2s1)Nc1cccc(C(=O)O)c1`: the inhibition worked out at 24.2%.

For `O=C(CSc1nc2ccccc2s1)Nc1ccc(C(=O)O)cc1`, the inhibition came to 66.4%.

As to `O=C(CSc1nc2ccccc2[nH]1)Nc1cc(C(=O)O)ccc1O`, the inhibition stood at 23.2%.

Take `O=C(CSc1nc2ccccc2s1)Nc1cc(C(=O)O)ccc1Cl`: the inhibition came out at 56.2%.

The record behind these values is ChEMBL document CHEMBL3045484, “Molecular modeling and synthesis of ZINC02765569 derivatives as protein tyrosine phosphatase 1B inhibitors: lead optimization study” (Med Chem Res, 2013).
